For data set [1], the target named is T1, Casein kinase 2 (Homo sapiens, UniProt P67870+P68400+P19784+Q8NEV1). The experiment in a line: Inhibition of CK2 (unknown origin). Format: protein assay.
Data set [2] in a line: Cytotoxicity against human MSC assessed as cell viability after 48 hrs by CCK-8 assay. In kind it is toxicity, cell-based. The conditions noted are these: mesenchymal stem cells (MSC). (Tetrazolium dyes change colour on reduction, which living cells bring about.)
Another data set has as its system A549. Nature of the data set: Antiproliferative activity against human A549 cells assessed as cell viability after 48 hrs by CCK-8 assay. In kind it is functional, cell-based. To be noted: A549, 48 h.
In the next data set the test system is SK-OV-3. The experiment in a line: Antiproliferative activity against human SK-OV-3 cells assessed as cell viability after 48 hrs by CCK-8 assay. Format: functional, cell-based. The conditions noted are these: SK-OV-3, 48 h.
In data set [3] the test system is HL-60. Nature of the data set: Antiproliferative activity against human HL-60 cells assessed as cell viability after 48 hrs by CCK-8 assay. Format: functional, cell-based. The conditions noted are these: HL-60, 48 h.
The test system of the next data set is HepG2. Nature of the data set: Antiproliferative activity against human HepG2 cells assessed as cell viability after 48 hrs by CCK-8 assay. In kind it is functional, cell-based. To be noted: HepG2, 48 h.
The test system of data set [4] is HL-60. Nature of the data set: Induction of apoptosis in human HL-60 cells assessed as early apoptotic cells at 1 uM measured after 48 hrs by flow cytometry relative to control. Format: functional. (In general: In flow cytometry, cells or beads pass a laser one at a time.)
For data set [5], the system named is HL-60. Nature of the data set: Induction of apoptosis in human HL-60 cells measured after 48 hrs by flow cytometry. To be noted: DDE = dose-dependent effect. In kind it is functional, cell-based.
The target of data set [6] is T1, Casein kinase 2. The experiment in a line: Inhibition of CK2 in human HL-60 cells assessed as decrease in survivin level at 0.1 to 1 uM by Western blot analysis. The conditions noted are these: dose 0.1-1 µM. In kind it is cell-based. On the technique in general: Immunoblotting shows a protein as a band on a membrane.
The target in data set [7] is T1, Casein kinase 2. The experiment in a line: Inhibition of CK2 in human HL-60 cells assessed as decrease in p-p21 level at 0.1 to 1 uM by Western blot analysis. Format: cell-based. To be noted: dose 0.1-1 µM.
Data set [8] concerns the target T1, Casein kinase 2. Nature of the data set: Binding affinity to CK2 (unknown origin) by cellular thermal shift assay. In kind it is protein assay.
The target in data set [9] is T1, Casein kinase 2. Nature of the data set: Inhibition of CK2 in human HL-60 cells assessed as increase in cleaved PARP level at 0.1 to 1 uM by Western blot analysis. In kind it is cell-based. To be noted: dose 0.1-1 µM.
Data set [10] addresses T1, Casein kinase 2. Nature of the data set: Inhibition of CK2 in human HL-60 cells assessed as decrease in p-STAT3 level at 0.1 to 1 uM by Western blot analysis. In kind it is cell-based. The conditions noted are these: dose 0.1-1 µM.
For data set [11], the target named is T1, Casein kinase 2. The experiment in a line: Inhibition of CK2 in human HL-60 cells assessed as decrease in p-alpha-catenin level at 0.1 to 1 uM by Western blot analysis. In kind it is cell-based. To be noted: dose 0.1-1 µM.
The target of data set [12] is T1, Casein kinase 2. The experiment in a line: Inhibition of CK2 in human HL-60 cells assessed as decrease in p-Akt (S129) level at 0.1 to 1 uM by Western blot analysis. To be noted: dose 0.1-1 µM. Format: cell-based.
Data set [13] deals with HL-60. Nature of the data set: Induction of cell cycle arrest in human HL-60 cells assessed as increase number of cells at G0/G1 phase at 0.1 to 1 uM measured after 12 to 48 hrs by flow cytometry. The conditions noted are these: dose 0.1-1 µM, time 12-48 hrs, DDE = dose-dependent effect. In kind it is functional, cell-based.

Active and inactive are the calls of the source. The calls are words filed in the database; no cut-off is given here.

Broadly, the IC50 is the concentration that inhibits the measured activity by half.

Molecule `Cc1csc(NC(=O)c2cc(=O)c3ccccc3o2)n1` showed an IC50 against Casein kinase 2 [1] of 6420 nM. With `O=Cc1cnc(NC(=O)c2cc(=O)c3ccccc3o2)s1`, the IC50 on Casein kinase 2 [1] was determined as 4980 nM. With `Cc1ccc(-c2csc(NC(=O)c3cc(=O)c4ccccc4o3)n2)cc1`, the 50% inhibitory concentration (IC50) against Casein kinase 2 [1] came to 230 nM. In the case of `Cc1cccc(-c2csc(NC(=O)c3cc(=O)c4ccccc4o3)n2)c1`, the half-inhibitory concentration (IC50) on Casein kinase 2 [1] was 4120 nM. The molecule `O=C(Nc1nccs1)c1cc(=O)c2ccccc2o1` returned an IC50 at Casein kinase 2 [1] of 5210 nM. With `O=C(Nc1nc2cc(F)ccc2s1)c1cc(=O)c2ccccc2o1`, the IC50 at 48 h in data set [2] is 4340 nM. Further, the IC50 in the data set on A549 amounted to 440 nM; against Casein kinase 2 [1], 110 nM; with SK-OV-3 it was 420 nM; in the data set with HL-60 [3], 310 nM; in the data set with HepG2, 850 nM. Take `O=C(Nc1nc(-c2ccc(F)cc2)cs1)c1cc(=O)c2ccccc2o1`: the half-maximal inhibitory concentration (IC50) at 48 h in data set [2] was 7560 nM. Moreover, the IC50 with A549 amounted to 520 nM; on Casein kinase 2 [1], 150 nM; in the data set with SK-OV-3, 440 nM; in the data set with HL-60 [3], 420 nM; with HepG2, 950 nM. Regarding `Cc1cc2nc(NC(=O)c3cc(=O)c4ccccc4o3)sc2cc1C`, the concentration for half-maximal inhibition (IC50) against Casein kinase 2 [1] is 360 nM. For the molecule `O=C(Nc1nc(-c2ccc(O)cc2)cs1)c1cc(=O)c2ccccc2o1`, the IC50 against Casein kinase 2 [1] stood at 740 nM. With `CNC(=O)c1cc(Oc2ccc(NC(=O)Nc3ccc(Cl)c(C(F)(F)F)c3)cc2)ccn1` [SORAFENIB], in the data set with HL-60 [4], the Activity is given as 73.2%.

As for `N#Cc1cccc(-c2csc(NC(=O)c3cc(=O)c4ccccc4o3)n2)c1`, the half-maximal inhibitory concentration (IC50) at Casein kinase 2 [1] was 5090 nM.

At Casein kinase 2 [1], `COc1ccc2nc(NC(=O)c3cc(=O)c4ccccc4o3)sc2c1` had an IC50 of 290 nM. Turning to `Cc1ccc2nc(NC(=O)c3cc(=O)c4ccccc4o3)sc2c1`, the IC50 on Casein kinase 2 [1] worked out at 370 nM.

With `CC(C)c1csc(NC(=O)c2cc(=O)c3ccccc3o2)n1`, the IC50 at Casein kinase 2 [1] is 5340 nM. The same measure, in the same setting: in the case of `COc1ccc(-c2csc(NC(=O)c3cc(=O)c4ccccc4o3)n2)cc1` it was 590 nM; in that of `O=C(Nc1nc(-c2cccc(C(F)(F)F)c2)cs1)c1cc(=O)c2ccccc2o1`, 5550 nM; in that of `O=C(Nc1nc(-c2ccccc2)cs1)c1cc(=O)c2ccccc2o1`, 610 nM. In turn, `O=C(O)c1cc(=O)c2ccccc2o1` [CHROMOCARB] came in with an IC50 at Casein kinase 2 [1] of 5980 nM.

As for `Cc1cnc(NC(=O)c2cc(=O)c3ccccc3o2)s1`, at Casein kinase 2 [1], the 50% inhibitory concentration (IC50) came out at 7110 nM. As to `Cc1nc(NC(=O)c2cc(=O)c3ccccc3o2)sc1C`, the IC50 at Casein kinase 2 [1] is 6110 nM. The same measure, in the same setting: in the case of `O=C(Nc1ncc(Br)s1)c1cc(=O)c2ccccc2o1` it was 5440 nM. Molecule `O=C(Nc1ncco1)c1cc(=O)c2ccccc2o1` registered an IC50 against Casein kinase 2 [1] of 4880 nM. Still for that read-out and setting: in the case of `O=C(Nc1nc2ccc(F)cc2s1)c1cc(=O)c2ccccc2o1` it was 240 nM.

On Casein kinase 2 [1], `CC(C)Cc1csc(NC(=O)c2cc(=O)c3ccccc3o2)n1` gave a half-maximal inhibitory concentration (IC50) of 4350 nM. Turning to `O=C(Nc1nc2ccc(C(F)(F)F)cc2s1)c1cc(=O)c2ccccc2o1`, the IC50 against Casein kinase 2 [1] came out at 200 nM. `COc1ccc2sc(NC(=O)c3cc(=O)c4ccccc4o3)nc2c1`: the IC50 at 48 h in data set [2] worked out at 6250 nM. Also, the figures for the Activity entry in the data set on HL-60 [5], with HL-60 [4] and in the data set with HL-60 [13] were “Dde”, 80.7% and “Dde”, respectively. Moreover, the inhibition entry at Casein kinase 2 [6], on Casein kinase 2 [7], on Casein kinase 2 [9], on Casein kinase 2 [10], on Casein kinase 2 [11] and at Casein kinase 2 [12] was “Active” throughout. The IC50 with A549 stood at 380 nM; against Casein kinase 2 [1], 80 nM; with SK-OV-3 it was 390 nM; in the data set on HL-60 [3], 250 nM; with HepG2, 660 nM. The result on Casein kinase 2 [8] was Active. `O=C(Nc1nc2ccc(OC(F)(F)F)cc2s1)c1cc(=O)c2ccccc2o1` gave a half-inhibitory concentration (IC50) against Casein kinase 2 [1] of 160 nM.

On to `O=C(Nc1nc2cc(Br)ccc2s1)c1cc(=O)c2ccccc2o1`, for which the IC50 at Casein kinase 2 [1] worked out at 250 nM. On the same count and under the same terms, under `O=C(Nc1nc(-c2ccc(C(F)(F)F)cc2)cs1)c1cc(=O)c2ccccc2o1` stands 340 nM; under `O=C(Nc1nnco1)c1cc(=O)c2ccccc2o1`, 6880 nM; under `Cc1nnc(NC(=O)c2cc(=O)c3ccccc3o2)o1`, 5200 nM. For `O=C(Nc1nc(-c2ccc(OC(F)(F)F)cc2)cs1)c1cc(=O)c2ccccc2o1`, the IC50 at 48 h in data set [2] was 17700 nM. Moreover, the IC50 in the data set with A549 turned out to be 670 nM; at Casein kinase 2 [1] it was 180 nM; in the data set with SK-OV-3, 490 nM; in the data set with HL-60 [3] it was 590 nM; in the data set on HepG2 it was 1040 nM. Turning to `O=C(Nc1nc2ccccc2s1)c1cc(=O)c2ccccc2o1`, the half-maximal inhibitory concentration (IC50) on Casein kinase 2 [1] stood at 310 nM. Take `O=C(Nc1nc2ccc(Br)cc2s1)c1cc(=O)c2ccccc2o1`: the IC50 on Casein kinase 2 [1] stood at 290 nM.
